Source: US9499862B2, “Phospholinked dye analogs with an amino acid linker” (Pacific Biosciences of California, Inc., priority 2010, dated 2016)

Test system: DNA polymerase
Settings: for 2SS characteristics: two slow step character, equals K1/K2; for K1 (S-1) / K2 (S-1): two slow step results, single molecule DNA sequencing, cyanine dye conjugate
From the text: In some cases, the system will have four kinetically observable (slow) reaction steps, two slow steps in a bright phase and two slow steps in a dark phase.

Compound	2SS characteristics	K1 (S-1)	K2 (S-1)
CC1(C)C(/C=C/C=C/C=C2/N(CCCCCC(=O)NC(CCC(=O)O)C(=O)NC(CCC(=O)O)C(=O)NCCCCCCOP(=O)(O)OP(=O)(O)OP(=O)(O)OC[C@H]3O[C@@H](n4ccc(N)nc4=O)CC3O)c3ccc4c(S(=O)(=O)O)cc(S(=O)(=O)O)cc4c3C2(C)C)=[N+](CCCS(=O)(=O)[O-])c2ccc3c(S(=O)(=O)O)cc(S(=O)(=O)O)cc3c21 (stereo partly drawn) [2Glu-tri-phosphate]	7.3	7.898	1.082
CC1(C)C(/C=C/C=C/C=C2/N(CCCCCC(=O)NC(CCCCN)C(=O)NC(CCCCN)C(=O)NCCCCCCOP(=O)(O)OP(=O)(O)OP(=O)(O)OC[C@H]3O[C@@H](n4ccc(N)nc4=O)CC3O)c3ccc4c(S(=O)(=O)O)cc(S(=O)(=O)O)cc4c3C2(C)C)=[N+](CCCS(=O)(=O)[O-])c2ccc3c(S(=O)(=O)O)cc(S(=O)(=O)O)cc3c21 (stereo partly drawn) [2Lys-tri-phosphate]	6.5	2.645	0.406
